Changes are numbered by the printed parent chain.
Tests used:
Experiment in all cases: isothermal titration calorimetry
Type in all cases: binding
Conditions in all cases: read-out: Ka (M^-1) (converted)
[1] = target: T1, eArgRS (E. coli arginyl-tRNA synthetase, ArgRS) (Escherichia coli, UniProt P11875, Y313A)
T1 construct: gene argS; full length, 577 residues; pET-28a-SUMO in E. coli BL21(DE3), N-terminal His-SUMO tag cleaved by Ulp1; mutants made in pET22b/ArgRS
T1 sequence (P11875 1-577 Y313A): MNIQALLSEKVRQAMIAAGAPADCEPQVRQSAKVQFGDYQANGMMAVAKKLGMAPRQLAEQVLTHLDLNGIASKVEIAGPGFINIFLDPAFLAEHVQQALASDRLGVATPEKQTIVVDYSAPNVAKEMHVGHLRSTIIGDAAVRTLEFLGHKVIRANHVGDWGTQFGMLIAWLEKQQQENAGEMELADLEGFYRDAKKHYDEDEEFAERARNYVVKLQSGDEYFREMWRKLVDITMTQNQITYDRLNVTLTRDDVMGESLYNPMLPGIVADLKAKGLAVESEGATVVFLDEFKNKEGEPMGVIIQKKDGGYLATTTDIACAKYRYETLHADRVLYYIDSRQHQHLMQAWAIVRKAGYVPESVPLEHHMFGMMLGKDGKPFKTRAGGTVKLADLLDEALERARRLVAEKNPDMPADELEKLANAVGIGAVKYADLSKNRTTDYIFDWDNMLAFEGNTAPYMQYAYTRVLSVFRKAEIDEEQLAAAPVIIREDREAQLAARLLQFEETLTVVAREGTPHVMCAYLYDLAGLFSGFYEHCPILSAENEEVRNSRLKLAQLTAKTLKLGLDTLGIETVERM
Text: (§1) isothermal titration calorimetry on eArgRS (E. coli arginyl-tRNA synthetase, ArgRS)

[2] = target: T2, eArgRS (E. coli arginyl-tRNA synthetase, ArgRS) (Escherichia coli, UniProt P11875)
T2 construct: gene argS; full length, 577 residues; pET-28a-SUMO in E. coli BL21(DE3), N-terminal His-SUMO tag cleaved by Ulp1; mutants made in pET22b/ArgRS
T2 sequence (P11875 1-577): T1 sequence (P11875 1-577 Y313A) with A313Y
Text: as §1

[3] = target: T3, eArgRS (E. coli arginyl-tRNA synthetase, ArgRS) (Escherichia coli, UniProt P11875, R324A)
T3 construct: gene argS; full length, 577 residues; pET-28a-SUMO in E. coli BL21(DE3), N-terminal His-SUMO tag cleaved by Ulp1; mutants made in pET22b/ArgRS
T3 sequence (P11875 1-577 R324A): T1 sequence (P11875 1-577 Y313A) with A313Y, R324A
Text: as §1

With `N=C(N)NCCC[C@H](N)C(=O)O` [L-arginine] as the compound, how does the Kd [1] read?
The Kd was 80.6 µM.

And the Kd [2]?
The Kd was 46.5 µM.

What about the Kd [3] of the same compound?
Its Kd is 191 µM.

From publication PMC3956977, “Crystal structure of E. coli arginyl-tRNA synthetase and ligand binding studies revealed key residues in arginine recognition” (Protein & Cell, 2014)
